Residues, ends and D or L forms follow the SMILES beside them.
Tests used:
[1] = system: VLA-4/VCAM-1 dependent cell adhesion; test: Real-time cell aggregation between U937 FPR (ΔST) and VCAM-1-transfected B78H1 cells; type: cell-based, human; details: U937 FPR ΔST + B78H1/VCAM-1; fMLFF 100 nM; DEA-NONOate 250 μM; LDV block 2 μM 6 min after mixing
Protocol: Real-time aggregation experiments were conducted as described under “Methods”, infra. U937/AST FPR stably transfected cells, which constitutively express VLA-4, were labeled with red fluorescent dye, and B78H1/VCAM-1 transfectants were stained with green fluorescent dye. […] Next, cells were mixed and real-time cell aggregation (red and green double positive events) was followed. To determine the level of VLA-4 dependent cell aggregation, 6 min after cell mixing, excess unlabelled VLA-4 specific ligand was added (arrow, LDV block, 2 μM).
Prior to the experiment, individual cell populations were stained with either of two fluorescent dyes (red and green). Next, the cell populations were mixed, and the appearance of double positive events, representing cellular aggregates, was followed in real-time by flow cytometry (see FIG. 1, 2, 3 in [55] for method details).
The cell suspension adhesion assay has been described previously. Briefly, U937/AST FPR stably transfected cells were labeled with red fluorescent PKH26GL dye, and B78H1/VCAM-1 transfectants were stained with green fluorescent PKH67GL dye (Sigma-Aldrich). Labeled cells were washed, resuspended in HEPES buffer supplemented with 0.1% HSA and stored on ice until used in assays. Control U937 cells were preincubated with the 1 μM LDV-containing small molecule for blocking adhesion. Prior to data acquisition, cells were warmed to 37° C. for 10 min separately and then mixed. During data acquisition, the samples were stirred with a 5×2-mm magnetic stir bar (Bel-Art Products, Pequannock, N.J.) at 300 rpm and kept at 37° C. For stimulation, cells were treated with appropriate GPCR ligands at saturating concentration (10 times or higher than Kd). In several experiments cells were treated sequentially with two different compounds. […] The percentage of aggregates was calculated as follows: % U937 cells in aggregates=number of aggregates/(number of aggregates+number of U937 singlets))×100. […]

[2] = system: VLA-4; test: Real-time flow cytometric binding of LDV-FITC probe (VLA-4 affinity change) on GPCR-transfected U937 cells; type: cell-based, human; details: for effect on magnitude of LDV-FITC binding response, compound added prior to IL-8 activation: U937 CXCR2/IL-8RB; for effect on magnitude of LDV-FITC binding response, compound added prior to IL-8 activation / effect on magnitude of LDV-FITC binding response, compound added prior to SDF-1 activation: added at 0 time point, BAY 41-2272 100 μM; for effect on magnitude of LDV-FITC binding response, compound added prior to SDF-1 activation: U937 CXCR4; for reversibility of the decrease in LDV-FITC binding / effect on LDV-FITC binding, compound added after fMLFF activation: U937 non-desensitizing FPR mutant (ΔST), LDV-FITC 4 nM, fMLFF 100 nM; for effect on LDV-FITC binding, compound added after fMLFF activation: different concentrations
Protocol: Experiments were conducted as described under “Methods”, infra. A, LDV-FITC probe binding and dissociation on U937 cells stably transfected with the non-desensitizing mutant of FPR (ΔST) receptor plotted as mean channel fluorescence (MCF) versus time.
The experiment involved sequential addition of fluorescent LDV-FITC probe (4 nM, below saturation, added 2 min prior to addition of Gαi-coupled receptor ligand, fMLFF, 100 nM), and different concentrations of DEA-NONOate (nitric oxide donor) (arrows). Control cells were treated with vehicle. The MCF value corresponding to cell autofluorescence is indicated by the horizontal arrow. […] Curves are means of two independent determinations calculated on a point-by-point basis (n=2). B, LDV-FITC probe binding and dissociation on U937 cells stably transfected with wild type CXCR4 receptor plotted as mean channel fluorescence (MCF) versus time.
The experiment involved sequential addition of fluorescent LDV-FITC probe (4 nM), CXCL12/SDF-1 (12 nM), and DEA-NONOate (250 μM, nitric oxide donor) or vehicle (control) (arrows). Rapid and reversible binding of the probe reflects the VLA-4 affinity change. Curves are means of two independent determinations calculated on a point-by-point basis (n=2). SEM of mean, calculated on a point by point basis, indicated using error bars to show significance of the difference between treatment and control samples. C, LDV-FITC probe binding and dissociation on U937 cells stably transfected with wild type CXCR2/IL-8RB receptor plotted as mean channel fluorescence (MCF) versus time.
The experiment involved sequential addition of the fluorescent LDV-FITC probe (4 nM), CXCL8/IL-8 (20 nM), and DEA-NONOate (250 μM, nitric oxide donor) or vehicle (control) (arrows). This experiment is analogous to the one shown in panel B. One representative experiment of three experiments is shown. Curves are means of two independent determinations calculated on a point-by-point basis (n=2). D, LDV-FITC probe binding and dissociation on U937 cells stably transfected with wild type CXCR4 receptor plotted as mean channel fluorescence (MCF) versus time.
The experiment involved sequential addition of the DEA-NONOate (250 μM, nitric oxide donor) or vehicle (control) at the 0 time point, and the fluorescent LDV-FITC probe (4 nM), CXCL12/SDF-1 (12 nM) (arrows). Rapid and reversible binding of the probe reflects the VLA-4 affinity change. Excess unlabelled competitor LDV (1 μM) is added at the end of the experiment to determine the non-specific binding of the probe. Curves are means of two independent determinations calculated on a point-by-point basis (n=2). SEM, calculated on a point by point basis, is indicated using error bars to show the significance of the difference between treatment and control samples. E, LDV-FITC probe binding and dissociation on U937 cells stably transfected with wild type CXCR2/IL-8RB receptor plotted as mean channel fluorescence (MCF) versus time.
The experiment involved sequential addition of DEA-NONOate (250 μM, nitric oxide donor) or vehicle (control) at the 0 time point, and the fluorescent LDV-FITC probe (4 nM), CXCL8/IL-8 (20 nM) (arrows). Excess unlabelled competitor LDV (1 μM) added at the end of the experiment to determine the non-specific binding of the probe. This experiment is analogous to the one shown in panel D. One representative experiment of three experiments is shown. Curves are means of two independent determinations calculated on a point-by-point basis (n=2). […] Experiments shown in the different panels were performed using different instruments, and therefore MCF values are not identical. […]
LDV-FITC probe binding and dissociation on U937 cells stably transfected with the non-desensitizing mutant of FPR plotted as mean channel fluorescence (MCF) versus time. […]

[3] = target: VLA-4 (Homo sapiens, UniProt P05556+P13612); test: Kinetic dissociation rate (koff) analysis of LDV-FITC probe on U937 cells with non-desensitizing FPR mutant; type: cell-based; details: U-937; U937 FPR ΔST; fMLFF 100 nM then BAY 41-2272 50 μM; LDV-FITC 25 nM, LDV block 2 μM; read-out: dissociation rate constant koff of LDV-FITC after fMLFF and BAY 41-2272
Protocol: The experiment involved sequential addition of BAY 41-2272 (100 μM, guanylyl cyclase activator) or vehicle (control) at the 0 time point, and the fluorescent LDV-FITC probe (4 nM), and CXCL8/IL-8 (20 nM) (arrows). Excess unlabelled competitor LDV (1 μM) added at the end of the experiment to determine the non-specific binding of the probe. This experiment is analogous to the one shown in panel B. One representative experiment of two experiments is shown. Curves are means of two independent determinations calculated on a point-by-point basis (n=2). […] D, Kinetic analysis of binding and dissociation of LDV-FITC probe on U937 cells stably transfected with the non-desensitizing mutant of FPR. Cells were sequentially treated with the LDV-FITC probe (25 nM, near saturation), the Gαi-coupled receptor ligand (fMLFF, 100 nM), BAY 41-2272 (guanylyl cyclase activator, 50 μM) (arrows). At time points indicated by arrows, cells were treated with excess unlabeled LDV containing small molecule (2 μM), and the dissociation of the fluorescent molecule was followed. Dissociation rate constants (koff) were obtained by fitting dissociation curves to a single exponential decay equation (as described in the text). Experiments shown in the different panels were performed using different instruments, and therefore MCF values are not identical. E, Dissociation rate values, obtained in experiments analogous to panel B, summarized as a bar graph showing mean and SEM (n=4). Colors of the dissociation curves in panel D and bars on panel E are matching. The difference between koffs for “resting” and “fMLFF activated”, and between “fMLFF activated” and “fMLFF activated and treated with BAY 41-2272” is statistically significant (P=0.0006<0.05) as calculated by one-way analysis of variance (ANOVA) using GraphPad Prism software. […]
Next, the regions of the ligand-binding curves corresponding to the dissociation of the LDV-FITC probe were fitted to a single exponential decay equation. […] The affinity state induced by guanylyl cyclase activator was quantitatively similar to the resting state before activation. […]

[4] = DEA-NONOate 250 μM, CXCL8/IL-8 20 nM
[5] = DEA-NONOate 250 μM, CXCL12/SDF-1 12 nM

VLA-4 (Homo sapiens, UniProt P05556+P13612), sequence (P13612 34-1032): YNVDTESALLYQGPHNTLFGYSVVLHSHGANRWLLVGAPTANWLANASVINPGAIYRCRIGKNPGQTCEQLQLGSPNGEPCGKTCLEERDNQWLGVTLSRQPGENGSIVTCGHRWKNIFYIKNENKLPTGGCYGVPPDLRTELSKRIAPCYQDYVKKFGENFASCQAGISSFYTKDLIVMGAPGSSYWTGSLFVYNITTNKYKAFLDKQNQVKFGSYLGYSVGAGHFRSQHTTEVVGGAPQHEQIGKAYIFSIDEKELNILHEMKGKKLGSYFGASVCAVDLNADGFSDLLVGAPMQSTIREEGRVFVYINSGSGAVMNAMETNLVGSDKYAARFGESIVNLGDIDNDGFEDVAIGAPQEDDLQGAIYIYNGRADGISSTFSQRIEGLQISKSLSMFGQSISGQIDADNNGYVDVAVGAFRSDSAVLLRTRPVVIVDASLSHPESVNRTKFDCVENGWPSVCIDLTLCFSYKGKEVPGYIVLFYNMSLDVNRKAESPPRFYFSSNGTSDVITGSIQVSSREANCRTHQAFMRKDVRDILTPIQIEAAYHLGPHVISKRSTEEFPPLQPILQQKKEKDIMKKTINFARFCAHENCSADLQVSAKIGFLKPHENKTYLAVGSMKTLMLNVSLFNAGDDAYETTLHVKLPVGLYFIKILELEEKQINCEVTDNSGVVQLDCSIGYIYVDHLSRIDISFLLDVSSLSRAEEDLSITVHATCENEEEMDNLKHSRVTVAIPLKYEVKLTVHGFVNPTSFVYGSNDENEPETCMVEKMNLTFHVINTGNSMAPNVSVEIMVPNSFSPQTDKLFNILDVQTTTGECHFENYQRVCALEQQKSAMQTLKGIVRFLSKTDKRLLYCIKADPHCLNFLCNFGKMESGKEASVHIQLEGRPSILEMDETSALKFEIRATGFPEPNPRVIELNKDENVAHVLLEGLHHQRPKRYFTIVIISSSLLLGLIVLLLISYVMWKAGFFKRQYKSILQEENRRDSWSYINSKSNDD
VLA-4 (Homo sapiens, UniProt P05556+P13612), sequence (P05556 21-798): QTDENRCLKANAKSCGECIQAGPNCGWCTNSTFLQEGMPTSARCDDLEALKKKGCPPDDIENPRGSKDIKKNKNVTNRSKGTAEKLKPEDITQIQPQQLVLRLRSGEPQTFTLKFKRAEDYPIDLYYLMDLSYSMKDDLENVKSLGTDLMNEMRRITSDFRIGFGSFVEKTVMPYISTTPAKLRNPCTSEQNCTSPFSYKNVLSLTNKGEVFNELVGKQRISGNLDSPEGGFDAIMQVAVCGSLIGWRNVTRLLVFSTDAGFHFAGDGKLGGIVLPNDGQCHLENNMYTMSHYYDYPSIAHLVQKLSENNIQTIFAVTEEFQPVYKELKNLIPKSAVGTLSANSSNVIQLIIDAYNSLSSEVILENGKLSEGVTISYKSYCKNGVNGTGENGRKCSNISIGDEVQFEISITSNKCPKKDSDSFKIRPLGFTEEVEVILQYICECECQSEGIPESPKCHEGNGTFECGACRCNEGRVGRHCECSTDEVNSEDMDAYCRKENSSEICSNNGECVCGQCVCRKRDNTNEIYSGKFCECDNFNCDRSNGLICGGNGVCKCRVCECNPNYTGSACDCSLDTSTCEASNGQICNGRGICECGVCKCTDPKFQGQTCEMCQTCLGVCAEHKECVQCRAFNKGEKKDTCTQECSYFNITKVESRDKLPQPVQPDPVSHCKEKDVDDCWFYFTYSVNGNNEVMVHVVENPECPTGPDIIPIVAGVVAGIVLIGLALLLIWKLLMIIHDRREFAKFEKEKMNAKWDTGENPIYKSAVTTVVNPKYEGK

SMILES	effect on VLA-4/VCAM-1 dependent cell aggregation (% U937 cells in aggregates) [1]	effect on magnitude of LDV-FITC binding response, compound added prior to IL-8 activation [2, 4]	effect on magnitude of LDV-FITC binding response, compound added prior to SDF-1 activation [2, 5]	reversibility of the decrease in LDV-FITC binding [2]	effect on LDV-FITC binding, compound added after fMLFF activation [2]	effect on LDV-FITC binding, compound added after CXCL8/IL-8 activation ([2]; U937 wild type CXCR2/IL-8RB, CXCL8/IL-8 20 nM, DEA-NONOate 250 μM)	effect on LDV-FITC binding, compound added after CXCL12/SDF-1 activation ([2]; U937 wild type CXCR4, CXCL12/SDF-1 12 nM, DEA-NONOate 250 μM)	koff [3] [s⁻¹]
CCN(CC)/[N+]([O-])=N/O [DEA-NONOate]	abolished fMLFF-dependent cellular aggregation	significant decrease in the magnitude of the response	significant decrease in the magnitude of the response	not reversible	rapid and dose-dependent decrease in the binding of the VLA-4 specific ligand	faster and more pronounced signal decrease	faster and more pronounced signal decrease	–
CCCC(=O)Nc1nc2c(ncn2C2OC3COP(=O)([O-])OC3C2OC(=O)CCC)c(=O)[nH]1.[Na+] (stereo not shown) [dbcGMP, N^2,2′-O-Dibutyrylguanosine 3′,5′-cyclic monophosphate]	–	–	–	reversible	dose-dependent decrease in the binding of the probe	–	–	–
CSCC[C@H](NC=O)C(=O)N[C@@H](CC(C)C)C(=O)N[C@@H](Cc1ccccc1)C(=O)N[C@@H](Cc1ccccc1)C(=O)O [fMLFF, N-formyl-L-methionyl-L-leucyl-L-phenylalanyl-L-phenylalanine] (HELM PEPTIDE1{[O=C[*:2]].M.L.F.F}$$$$V2.0)	rapid increase in cell aggregation	–	–	–	–	–	–	–
Nc1nc(-c2nn(Cc3ccccc3F)c3ncccc23)ncc1C1CC1 [BAY 41-2272, 3-(4-Amino-5-cyclopropylpyrimidin-2-yl)-1-(2-fluorobenzyl)-1H-pyrazolo[3,4-b]pyridine]	–	decrease in the magnitude of the response	decrease in the magnitude of the response	partially reversible	significant decrease in LDV-FITC binding	–	–	~0.036
Cc1ccccc1NC(=O)Nc1ccc(CC(=O)N[C@@H](CC(C)C)C(=O)N[C@@H](CC(=O)O)C(=O)N[C@H](C(=O)N2CCC[C@H]2C(=O)N[C@@H](C)C(=O)N[C@@H](C)C(=O)N[C@@H](CCCCN)C(=O)O)C(C)C)cc1 [LDV, 4-((N′-2-methylphenyl)ureido)-phenylacetyl-L-leucyl-L-aspartyl-L-valyl-L-prolyl-L-alanyl-L-alanyl-L-lysine]	rapid cellular disaggregation	–	–	–	–	–	–	–

— patent US20140088034A1, “NITRIC OXIDE/cGMP PATHWAY INHIBITION OF VLA-4 RELATED CELL ADHESION” (STC.UNM, priority 2011, published 2014)
